Entries after “also recorded” stand apart in the source; their conditions may differ.
Assays:
[1] = comparator, Rao et al. 2010; cited from earlier work
[2] = tested on: patients with moderate TBI; experiment: clinical trial of ODSH infusion in moderate TBI; format: in vivo; details: ODSH infusion added to best supportive care
Method: FIG. 4 outlines the phase II clinical trial of ODSH for treating TBI.
A clinical trial is conducted.
Enrollment criteria are (i) moderate TBI: Glasgow Coma Score (GCS) of 9-12, or if patient is intubated, GCS 7-9; (ii) cerebral contusions on CT scan. Patients are randomized into 2 groups. Both groups receive best supportive care. This is an active treatment control. One group additionally receives infusion of ODSH.

[3] = tested on: middle cerebral artery occlusion animal model; experiment: secondary brain injury after middle cerebral artery occlusion in an animal model; format: in vivo
[4] = USP anticoagulant assay; format: biochemical

Substance	activity in the USP anticoagulant assay [1]	inflammatory biomarkers [2]	Glasgow Outcome Scale scores ([2]; at 6 months)	Montreal Cognitive Assessment (MoCA) score ([2]; six months post-injury)	secondary brain injury [3]	anticoagulant activity in the USP anticoagulant assay [4]	anticoagulant activity in the USP anticoagulant assay (e.g. value) [4] [U]
unfractionated heparin	165-190 U/mg	–	–	–	–	–	–
2-O, 3-O-desulfated heparin [ODSH]	–	reduces	improves	improves	reduction of secondary brain injury; also recorded: reduced secondary brain injury	less than 9 U/mg	7±0.3
